ChEMBL document CHEMBL1201862, “PubChem BioAssay data set” (2004)
The source made the active and inactive calls.

Legend:
Kallikrein-7 = Kallikrein-7 (Homo sapiens, UniProt P49862); test: Fluorescence Intensity-based biochemical primary high throughput dose response assay to identify activators of kallikrein-7 (K7) zymogen.
[1] = A Cell Based Secondary Assay To Explore Cytotoxicity of Compounds that Sensitize Mycobacterium Tuberculosis to Beta-Lactam Antibiotics.; type: functional
Protein RecA = molecular target: T1, Protein RecA (Mycobacterium tuberculosis, UniProt P9WHJ3); test: Fluorescence Cell-Free Homogeneous Dose Retest to Identify Inhibitors of RecA-Intein Splicing Activity. [Related pubchem assays (depositor defined):AID2097, AID2223, AID489010, AID492950]; type: functional
T1 sequence (P9WHJ3 whole entry): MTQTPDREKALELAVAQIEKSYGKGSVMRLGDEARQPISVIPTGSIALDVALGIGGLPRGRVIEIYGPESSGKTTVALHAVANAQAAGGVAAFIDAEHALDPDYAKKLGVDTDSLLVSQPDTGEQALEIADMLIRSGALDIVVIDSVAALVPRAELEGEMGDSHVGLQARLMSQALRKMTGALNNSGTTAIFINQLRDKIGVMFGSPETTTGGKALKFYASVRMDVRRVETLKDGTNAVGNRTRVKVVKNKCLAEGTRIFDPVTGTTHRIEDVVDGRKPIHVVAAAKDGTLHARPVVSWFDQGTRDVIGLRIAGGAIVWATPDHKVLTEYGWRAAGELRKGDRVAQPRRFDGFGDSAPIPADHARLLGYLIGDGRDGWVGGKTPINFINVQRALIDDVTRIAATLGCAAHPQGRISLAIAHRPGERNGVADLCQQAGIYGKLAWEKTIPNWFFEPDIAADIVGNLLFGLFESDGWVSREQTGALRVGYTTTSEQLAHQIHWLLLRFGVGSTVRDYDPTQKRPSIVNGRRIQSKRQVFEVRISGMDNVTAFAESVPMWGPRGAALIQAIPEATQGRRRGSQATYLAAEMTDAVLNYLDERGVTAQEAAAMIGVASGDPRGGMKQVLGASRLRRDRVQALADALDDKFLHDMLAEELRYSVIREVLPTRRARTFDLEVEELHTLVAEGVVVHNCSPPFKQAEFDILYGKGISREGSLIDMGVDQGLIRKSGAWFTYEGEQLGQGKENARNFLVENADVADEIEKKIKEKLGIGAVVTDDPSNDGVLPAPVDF

[2] = OVCAR-3 cell viability loss – plate reader, dry powder samples, PAX8 inhibitor project, dose response (AID 743044); type: functional, cell-based
[3] = inhibitors acting on PAX2 in cells – cell-based, plate reader, dry powder samples, selectivity assay for PAX8 inhibitor project, dose response (AID 743048); type: functional;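 note: HEK293 cells carrying a WT1 promoter luciferase reporter driven by expressed Pax2; potency is for inhibition of Pax2 driven reporter signal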
Paired box protein Pax-8 = Paired box protein Pax-8 (Homo sapiens, UniProt Q06710); test: PAX8 transcriptional activity inhibition in RMG-I – RMG-I cells, luciferase, cherry-pick, dose response (AID 687027); type: functional, cell-based;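 note: luciferase reporter driven by Pax8 target thyroperoxidase promoter measured by SteadyGlo luminescence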
Sequence of Paired box protein Pax-8 (Q06710 whole entry): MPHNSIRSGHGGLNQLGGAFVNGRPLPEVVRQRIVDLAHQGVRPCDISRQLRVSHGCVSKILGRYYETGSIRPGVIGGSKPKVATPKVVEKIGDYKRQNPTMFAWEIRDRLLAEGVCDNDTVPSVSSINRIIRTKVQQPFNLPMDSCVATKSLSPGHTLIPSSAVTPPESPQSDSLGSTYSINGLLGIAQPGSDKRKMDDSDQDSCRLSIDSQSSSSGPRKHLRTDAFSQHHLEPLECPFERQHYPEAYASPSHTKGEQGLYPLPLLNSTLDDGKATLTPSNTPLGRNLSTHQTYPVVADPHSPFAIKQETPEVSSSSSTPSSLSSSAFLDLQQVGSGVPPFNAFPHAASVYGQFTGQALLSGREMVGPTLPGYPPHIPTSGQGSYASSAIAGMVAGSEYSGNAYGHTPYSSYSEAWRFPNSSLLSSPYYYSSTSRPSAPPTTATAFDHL

[4] = COV434 cell viability loss – plate reader, dry powder, SA7, cytotoxicity control for PAX8 inhibitor project, dose response (AID 743145); type: functional, cell-based
[5] = toxicity toward immortalized ovarian surface epithelium – cell-based, plate reader, dry powder samples, cytotoxicity control for PAX8 inhibitor project, dose response (AID 743045); type: functional
[6] = molecular target: T2, Replicative DNA helicase DnaB (Mycobacterium tuberculosis, UniProt P9WMR3); test: DnaB intein splicing inhibitors, dose response, biochemical, cell-free fluorescence (AID 449749); type: functional
T2 sequence (P9WMR3 whole entry): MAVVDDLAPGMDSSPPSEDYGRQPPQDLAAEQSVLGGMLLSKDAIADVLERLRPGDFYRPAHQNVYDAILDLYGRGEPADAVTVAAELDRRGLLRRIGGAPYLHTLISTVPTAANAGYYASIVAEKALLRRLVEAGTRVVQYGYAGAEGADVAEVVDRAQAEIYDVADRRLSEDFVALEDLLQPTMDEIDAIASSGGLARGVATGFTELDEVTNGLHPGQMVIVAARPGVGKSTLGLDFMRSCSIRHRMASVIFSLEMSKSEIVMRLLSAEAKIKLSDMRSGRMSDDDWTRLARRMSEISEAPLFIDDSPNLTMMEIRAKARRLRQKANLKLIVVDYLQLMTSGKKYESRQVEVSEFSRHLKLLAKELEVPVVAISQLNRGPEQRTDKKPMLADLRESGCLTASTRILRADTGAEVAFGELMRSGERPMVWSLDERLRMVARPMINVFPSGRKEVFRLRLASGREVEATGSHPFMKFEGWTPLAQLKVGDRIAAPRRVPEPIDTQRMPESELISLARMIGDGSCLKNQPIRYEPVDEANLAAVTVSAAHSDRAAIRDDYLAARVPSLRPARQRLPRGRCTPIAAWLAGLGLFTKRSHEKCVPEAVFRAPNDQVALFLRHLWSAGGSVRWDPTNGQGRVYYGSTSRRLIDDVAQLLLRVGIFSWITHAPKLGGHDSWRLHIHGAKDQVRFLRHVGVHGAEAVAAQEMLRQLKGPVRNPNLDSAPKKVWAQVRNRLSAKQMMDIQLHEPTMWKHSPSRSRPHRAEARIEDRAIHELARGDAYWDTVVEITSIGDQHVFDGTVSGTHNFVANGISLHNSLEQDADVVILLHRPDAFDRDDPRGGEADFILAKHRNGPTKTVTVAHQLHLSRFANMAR

[7] = PAX8-dependent cell viability loss – plate reader, dry powder, dose response (AID 743049); type: functional, cell-based
[8] = lung carcinoma cell viability loss – CellTiter-Glo luminescence, dry powder, set 17, dose response (AID 1117284); type: functional, cell-based; details: A549
[9] = OVCAR8 cell viability loss – plate reader, dry powder samples, PAX8 project, dose response (AID 743197); type: functional, cell-based; details: OVCAR-8
[10] = IC50 of insulin release inhibition, rat insulinoma INS-1E line, 5 mM glucose, cell-based (AID 1117331); type: functional
[11] = IC50 of Artemis nuclease activity blockers – biochemical, fluorescence intensity, dose response (AID 720701); type: functional;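 note: Artemis endonuclease enzyme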
[12] = Luminescence Cell-Based Dose Response HTS to Identify Inhibitors of 5'UTR Stem-Loop Driven Prion Protein mRNA Translation in H4 Neuroglioblastoma Cells. [Related pubchem assays: 1827 (Project Summary), 1813 (Primary HTS)]; type: functional
Cytochrome P450 2D6 = Cytochrome P450 2D6 (Homo sapiens, UniProt P10635);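 note: CYP2D6 member of a cytochrome P450 panel assay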
Sequence of Cytochrome P450 2D6 (P10635 whole entry): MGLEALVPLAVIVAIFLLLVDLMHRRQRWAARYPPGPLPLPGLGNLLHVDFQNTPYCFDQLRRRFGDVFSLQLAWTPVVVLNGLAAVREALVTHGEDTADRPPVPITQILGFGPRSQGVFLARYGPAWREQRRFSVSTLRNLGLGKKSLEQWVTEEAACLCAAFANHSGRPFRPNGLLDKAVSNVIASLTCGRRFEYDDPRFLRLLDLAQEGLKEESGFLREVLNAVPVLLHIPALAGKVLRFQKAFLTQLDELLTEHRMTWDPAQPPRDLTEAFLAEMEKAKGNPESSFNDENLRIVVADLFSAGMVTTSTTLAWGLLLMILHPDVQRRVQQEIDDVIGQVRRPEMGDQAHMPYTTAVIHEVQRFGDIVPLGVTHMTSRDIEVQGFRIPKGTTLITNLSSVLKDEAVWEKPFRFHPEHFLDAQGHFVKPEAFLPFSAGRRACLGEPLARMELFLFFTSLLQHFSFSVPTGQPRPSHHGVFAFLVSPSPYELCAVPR

[13] = luciferase reporter signal suppression in cells – H4 neuroglioma cells, luminescence, dose response (AID 1990); type: functional, cell-based
[14] = alpha-synuclein stem-loop luciferase translation blockers – H4 neuroglioma cells, luminescence, confirmation (AID 1988); type: functional, cell-based
[15] = system: Streptococcus sp. 'group A'; test: Streptococcus pyogenes SK(-)GAS viability under kanamycin – luminescence, BacTiterGlo, confirmation, counter-screen for streptokinase expression inhibitor project, dose response (AID 1900); type: functional, organism-based
Streptococcus = test: GAS UMAA2166 growth inhibition – luminescence, BacTiterGlo, counter-screen for streptokinase expression inhibitor project, dose response (AID 1915); type: functional, organism-based;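 note: potency for reduction of bacterial viability or growth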
Cytochrome P450 2C19 = Cytochrome P450 2C19 (Homo sapiens, UniProt P33261); test: Cytochrome panel assay with activity outcomes. Panel member name: p450-cyp2c19 Compounds with AC50 equal or less than 10 uM are considered active; type: functional; details: read-out: AC50
Sequence of Cytochrome P450 2C19 (P33261 whole entry): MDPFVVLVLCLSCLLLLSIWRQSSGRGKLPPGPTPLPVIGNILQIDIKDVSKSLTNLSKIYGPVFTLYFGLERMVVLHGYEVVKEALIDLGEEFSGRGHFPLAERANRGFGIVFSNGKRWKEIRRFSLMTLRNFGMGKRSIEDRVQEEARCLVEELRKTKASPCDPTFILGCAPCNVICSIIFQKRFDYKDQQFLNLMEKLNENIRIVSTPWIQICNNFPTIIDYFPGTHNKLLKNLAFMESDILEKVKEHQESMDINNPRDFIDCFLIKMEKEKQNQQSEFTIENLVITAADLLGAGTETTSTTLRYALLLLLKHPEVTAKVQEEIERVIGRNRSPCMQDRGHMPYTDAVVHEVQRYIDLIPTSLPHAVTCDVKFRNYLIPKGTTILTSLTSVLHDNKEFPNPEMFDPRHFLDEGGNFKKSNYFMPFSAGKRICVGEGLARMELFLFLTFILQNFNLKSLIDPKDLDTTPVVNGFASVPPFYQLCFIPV

[16] = Luminescence Cell-Based Dose Retest to Confirm Inhibitors of Cancer Stem Cells. [Related pubchem assays (depositor defined):AID2717, AID2721]; type: functional; details: Homo sapiens
[17] = molecular target: RNA-editing ligase 1, mitochondrial (Trypanosoma brucei brucei, UniProt P86926); test: inhibition of trypanosome RNA editing ligase – biochemical, fluorescence, Trypanosoma brucei, dose response (AID 1117295); type: functional
Sequence of RNA-editing ligase 1, mitochondrial (P86926 whole entry): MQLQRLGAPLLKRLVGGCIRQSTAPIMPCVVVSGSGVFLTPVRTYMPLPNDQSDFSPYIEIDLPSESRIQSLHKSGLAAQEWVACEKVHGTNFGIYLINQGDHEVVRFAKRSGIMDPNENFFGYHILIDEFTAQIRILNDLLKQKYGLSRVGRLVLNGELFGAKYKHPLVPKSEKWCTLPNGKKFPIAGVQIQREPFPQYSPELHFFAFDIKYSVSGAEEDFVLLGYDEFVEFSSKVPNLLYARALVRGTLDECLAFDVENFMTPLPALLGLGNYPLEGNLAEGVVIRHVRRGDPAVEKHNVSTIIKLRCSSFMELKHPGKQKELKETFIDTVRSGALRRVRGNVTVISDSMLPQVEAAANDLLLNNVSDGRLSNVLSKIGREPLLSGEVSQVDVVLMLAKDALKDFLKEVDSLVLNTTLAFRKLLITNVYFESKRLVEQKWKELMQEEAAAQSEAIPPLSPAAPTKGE

Sequence of Kallikrein-7 (P49862 whole entry): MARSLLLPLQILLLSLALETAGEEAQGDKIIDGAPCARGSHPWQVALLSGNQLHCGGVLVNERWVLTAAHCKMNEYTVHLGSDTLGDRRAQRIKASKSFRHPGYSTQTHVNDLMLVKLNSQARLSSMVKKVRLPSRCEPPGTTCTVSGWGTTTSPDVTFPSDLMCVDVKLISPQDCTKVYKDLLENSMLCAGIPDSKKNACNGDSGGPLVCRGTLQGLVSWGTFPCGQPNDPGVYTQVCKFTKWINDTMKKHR

## COc1ccc(OC(=O)c2cccc([N+](=O)[O-])c2)c(C(=O)/C=C/c2cccs2)c1
Kallikrein-7
  EC50: 46 µM (inactive)
[1]
  CC50: 39.6 µM (active)

## O=C1/C(=C/c2ccccc2F)SC(=S)N1CC(=O)N1CCCCC1c1cccnc1 (centres undefined)
Protein RecA
  EC50: 18.6 µM (active)
[2]
  AC50: 26.3 µM (active)
[3]
  AC50: > 100 µM (inactive)
Paired box protein Pax-8
  AC50: 5.04 µM (active)
[4]
  AC50: 38.3 µM (active)
[5]
  AC50: 43.5 µM (active)
[6]
  AC50: 17.9 µM (active)
[7]
  AC50: 44.9 µM (active)

## C[C@H](O)C#Cc1ccc2c(c1)O[C@H](CN(C)Cc1ccc(-c3ccccc3)cc1)[C@H](C)CN([C@@H](C)CO)S2(=O)=O
[8]
  AC50: > 52 µM (inactive)
[9]
  AC50: 50 µM (active)
Paired box protein Pax-8
  AC50: 5.87 µM (active)

## OC(CCN1CCCCC1)(c1ccccc1)c1ccccc1 [PRIDINOL]
[10]
  IC50: 27 µM (inactive)

## Nc1nn2c(O)cc(-c3ccccc3)nc2c1N=Nc1ccccc1
[11]
  IC50: 19.9 µM (active)
[12]
  EC50: 12.7 µM (active)
Cytochrome P450 2D6
  AC50: 28.2 µM (inconclusive)
[13]
  EC50: > 60 µM (not active)
[14]
  EC50: 10.5 µM (active)
[15]
  EC50: 1.67 µM (active)
Streptococcus
  EC50: 4.43 µM (active)
Cytochrome P450 2C19
  AC50: 28.2 µM (inconclusive)
[16]
  AC50: 1.62 µM (active)

## C=CCNCCOCCOc1ccc(Cl)cc1C(C)(C)C
[17]
  IC50: > 96.6 µM (inactive)
